Target: Cathepsin Z (Homo sapiens) (UniProt Q9UBR2)
Test: Inhibition of human recombinant cathepsin X

Cathepsin Z (Homo sapiens), sequence (Q9UBR2 whole entry, looked up): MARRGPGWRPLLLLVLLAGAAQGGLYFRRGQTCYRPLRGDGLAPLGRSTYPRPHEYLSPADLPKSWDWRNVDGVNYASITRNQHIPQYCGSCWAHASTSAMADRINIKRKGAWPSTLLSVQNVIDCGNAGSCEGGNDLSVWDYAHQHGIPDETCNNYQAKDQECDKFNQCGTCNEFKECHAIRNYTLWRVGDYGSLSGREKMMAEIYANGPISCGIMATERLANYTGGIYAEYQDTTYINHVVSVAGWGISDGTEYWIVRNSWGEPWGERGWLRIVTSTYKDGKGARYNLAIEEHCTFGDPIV

Compound | IC50 [nM]
O=C1O[C@H]2CN1CC[C@@H]2Br [(1S,2S)-2-bromo-7-oxa-5-aza-bicyclo[3.2.1]octan-6-one] | > 10000
Cc1cccc(O[C@H]2CCN3C[C@H]2OC3=O)c1C (relative stereo) [cis-4-(2,3-dimethylphenoxy)-6-oxa-1-aza-bicyclo[3.2.1]octan-7-one] | 197
Cc1cccc(O[C@H]2CCN3C[C@@H]2OC3=O)c1C (racemic) [rac-trans4-(2,3-dimethylphenoxy)-6-oxa-1-aza-bicyclo[3.2.1]octan-7-one] | 553

Target: Cathepsin Z (Homo sapiens) (UniProt Q9UBR2)
Test: Inhibition of human recombinant cathepsin X
Remark: another data set of the same source

Compound | IC50 [nM]
O=C1O[C@@H]2CN1CC[C@@H]2OCc1ccccc1 [(1R,2S)-2-(benzyloxy)-7-oxa-5-aza-bicyclo[3.2.1]octan-6-one] | 547
S=C1O[C@@H]2CN1CC[C@@H]2Oc1ccccc1 [(1R,2S)-2-phenoxy-7-oxa-5-aza-bicyclo[3.2.1]octane-6-thione] | 7150
O=C1O[C@@H]2CN1CC[C@@H]2Oc1ccccc1 [(1R,2S)-2-phenoxy-7-oxa-5-aza-bicyclo[3.2.1]octan-6-one] | 326
CC(C)CO[C@H]1CCN2C[C@H]1OC2=O [(1R,2S)-2-isobutoxy-7-oxa-5-aza-bicyclo[3.2.1]octan-6-one] | 1100

— BindingDB's records for doi:10.1016/j.bmcl.2006.12.014 (The Genomics Institute of The Novartis Research Foundation, 2007)
